Test results published in PubChem BioAssay (NCI).
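Cultured in 96-well plates, cells were exposed to test compound for 48 hours across five concentrations. Abbreviation: GI50, concentration required for 50% inhibition of growth. Definition used: TGI = concentration required for complete inhibition of growth.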

Experiments:
Test in all cases: NCI tumour cell line growth inhibition, 48 h
786-0 renal = tested on: 786-0 renal
ACHN renal = tested on: ACHN renal
HCC-2998 colon = tested on: HCC-2998 colon
HOP-62 NSCLC = tested on: HOP-62 NSCLC
MDA-MB-435 = tested on: MDA-MB-435
NCI-H460 lung = tested on: NCI-H460 lung
SNB-19 CNS = tested on: SNB-19 CNS
TK-10 renal = tested on: TK-10 renal
UACC-62 melanoma = tested on: UACC-62 melanoma
NCI-H226 lung = tested on: NCI-H226 lung

Compound | TGI (786-0 renal) | TGI (ACHN renal) | TGI (HCC-2998 colon) | TGI (HOP-62 NSCLC) | TGI (MDA-MB-435) | TGI (NCI-H460 lung) | TGI (SNB-19 CNS) | TGI (TK-10 renal) | TGI (UACC-62 melanoma) | TGI (NCI-H226 lung) | GI50 (HCC-2998 colon) | GI50 (HOP-62 NSCLC) | GI50 (NCI-H226 lung) | GI50 (NCI-H460 lung) | GI50 (TK-10 renal) | GI50 (UACC-62 melanoma)
COC(=O)c1c(OC)cc2cc3c(c(O)c2c1C)C(=O)C1(O)C(=O)C=C(OC)C(OC(=O)CC(C)N)=C1C3=O (stereo unspecified) | > 100 µM | > 100 µM | 87.9 µM | > 100 µM | > 100 µM | > 100 µM | > 100 µM | > 100 µM | > 100 µM | – | – | – | – | – | – | –
CC(=O)Nc1ccc(C(=O)N2N=C(C)/C(=C/c3ccc(O)cc3)C2=O)cc1 | > 100 µM | > 100 µM | > 100 µM | > 100 µM | – | > 100 µM | > 100 µM | > 100 µM | – | > 100 µM | – | – | – | – | – | –
C/C(=C\Cc1cc(O)ccc1O)CCc1c(C)cc(O)c(C=O)c1C | 62.6 µM | 44.3 µM | > 100 µM | – | – | 67.2 µM | > 100 µM | > 100 µM | – | 78.5 µM | – | – | – | – | – | –
O=c1c2c(nc3n1CCC3)sc1c(O)c(Br)ccc12 | 37.4 µM | 35.8 µM | 38 µM | 45.3 µM | – | 34.4 µM | > 100 µM | 60.5 µM | 35.8 µM | 73.2 µM | – | – | – | – | – | –
O=c1oc2ccc(Cl)cc2cc1-c1cn2ccsc2n1 | > 100 µM | > 100 µM | > 100 µM | > 100 µM | > 100 µM | > 100 µM | > 100 µM | > 100 µM | > 100 µM | – | – | – | – | – | – | –
Cc1cc(=O)[nH]c(NNC(C#N)c2ccc([N+](=O)[O-])cc2)n1 (stereo unspecified) | > 100 µM | > 100 µM | – | > 100 µM | – | > 100 µM | – | > 100 µM | > 100 µM | > 100 µM | – | – | – | – | – | –
Nc1ncc(/C=N/O)c(NCC2(CO)CC(CCc3ccccc3)C2)n1 (stereo unspecified) | 37.2 µM | – | 30.4 µM | 24.8 µM | 23.8 µM | 22.1 µM | – | – | 33.1 µM | 40.1 µM | – | – | – | – | – | –
Cc1c2cccc-2ccc2c1[nH]c1ccccc12 | 10.1 µM | 3.2 µM | – | 12.9 µM | 4.68 µM | 3.57 µM | 10.3 µM | 4.92 µM | 3.79 µM | 3.92 µM | – | – | – | – | – | –
Cc1cc2n([O-])cccc-2[n+](=O)c1 | – | > 100 µM | > 100 µM | > 100 µM | – | > 100 µM | > 100 µM | > 100 µM | > 100 µM | > 100 µM | – | – | – | – | – | –
O=[N+]([O-])/C=C/c1cn(CCCCCn2cc(/C=C/[N+](=O)[O-])c3ccccc32)c2ccccc12 | 1.35 µM | 13.9 µM | 2.8 µM | 10.6 µM | – | 17.4 µM | 24.2 µM | 5.37 µM | 31.5 µM | 4.36 µM | – | – | – | – | – | –
O=C(OCc1ccccc1C1CSCSC1)c1cc(C(=O)OCc2ccccc2C2CSCSC2)c(C(=O)OCc2ccccc2C2CSCSC2)cc1C(=O)OCc1ccccc1C1CSCSC1 | > 100 µM | > 100 µM | – | > 100 µM | – | > 100 µM | – | > 100 µM | > 100 µM | > 100 µM | – | – | – | – | – | –
CCCCCCOc1ccc(C(=N)N(CCCC)CCCC)c2ccccc12 | – | – | 3.03 µM | 3.34 µM | – | 3.01 µM | – | 3.14 µM | 3.23 µM | 3.07 µM | 1.59 µM | 1.7 µM | 1.53 µM | 1.56 µM | 1.57 µM | 1.6 µM
COC(=O)CC(NC(=O)OCc1ccccc1)C(C(=O)OCc1ccccc1)C1(C)OCCO1 (stereo unspecified) | > 100 µM | > 100 µM | > 100 µM | > 100 µM | – | > 100 µM | > 100 µM | > 100 µM | 59.7 µM | 94.1 µM | – | – | – | – | – | –
CC1(C)COC(c2c(-c3ccccc3)noc2CS(=O)c2ccccc2)=N1 (stereo unspecified) | > 100 µM | > 100 µM | > 100 µM | > 100 µM | – | > 100 µM | > 100 µM | > 100 µM | 76.9 µM | > 100 µM | – | – | – | – | – | –
CCN(CC)CCN(C)CCc1ccc(Br)cc1 | > 100 µM | > 100 µM | > 100 µM | > 100 µM | > 100 µM | > 100 µM | > 100 µM | > 100 µM | – | > 100 µM | – | – | – | – | – | –
O=C(c1ccco1)C1CC(c2ccc3ccccc3c2O)=NN1c1ccc([N+](=O)[O-])cc1[N+](=O)[O-] (stereo unspecified) | > 100 µM | > 100 µM | > 100 µM | > 100 µM | > 100 µM | 33.9 µM | – | > 100 µM | > 100 µM | > 100 µM | – | – | – | – | – | –
O=[N+]([O-])c1ccc(NS(=O)(=O)C(F)(F)F)cc1 | > 100 µM | > 100 µM | – | > 100 µM | > 100 µM | > 100 µM | > 100 µM | > 100 µM | > 100 µM | > 100 µM | – | – | – | – | – | –
